According to patent publication US20220235255A1, “FLUORINE SUBSTITUTED UNSYMMETRICAL ETHERS, AND COMPOSITIONS, METHODS AND USES INCLUDING SAME” (HONEYWELL INTERNATIONAL INC., priority 2021, published 2022):

Tests used:
Format in all cases: physicochemical
[1] = Flash point / non-flammability, ASTM D3828-16a, NFPA 30
Source text: Flash Point refers the lowest temperature at which vapors of the liquid will keep burning after the ignition source is removed as determined in accordance with ASTM D3828-16a.
The flash point of a thermal management composition or fluid refers the lowest temperature at which vapours of the composition will keep burning after the ignition source is removed as determined in accordance with ASTM D3828-16a.

[2] = Dielectric constant, ASTM D150-11, room temperature, 20 GHz
Source text: Dielectric Constant means the dielectric constant as measured in accordance with ASTM D150-11 at room temperature at 20 giga hertz (GHz).

Normal boiling point = assay: Normal boiling point

For `FC(F)(F)COC(C(F)(F)F)C(F)(F)F` [Compound 1A, propane, 2-(2′,2′,2′-trifluorethoxy)-(1,1,1,3,3,3-hexafluoro)], the flash point [1] was “no flash point”, the dielectric constant [2] was “below 4” and the normal boiling point (Normal boiling point) was “about 69 °C”.
